Test results published in paper PMC12040169 (PLOS Biology, 2025).

Assay: in vitro
Conditions: human, hela cells, % viability

SMILES	viability at 28.5 h, 10 µM
COC(=O)c1c(NC(=O)C2C3C=CC(C3)C2C(=O)O)sc2c1CCCCC2 (stereo not shown) [CBK262653]	80.2%
COC(=O)c1c(NC(=O)c2cnccn2)sc2c1CCC(C)C2 (stereo not shown) [CBK262654]	96.2%
COC(=O)c1c(NC(=O)C2CC=CCC2C(=O)O)sc2c1CCC(C)C2 (stereo not shown) [CBK262655]	101%
O=C(NCCCn1ccnc1)c1cc(-c2ccccc2Cl)nc2ccccc12 [CBK262656]	95.2%
CCOC(=O)c1sc(NC(=O)Nc2cccc(Cl)c2)c(C(N)=O)c1C [CBK262658]	107%
O=C(O)C1C2C=CC(C2)C1C(=O)N1CCN(C(c2ccccc2)c2ccccc2)CC1 (stereo not shown) [CBK262659]	95.2%
CN1CCC(=NNC(=O)c2cc(O)c(O)c(O)c2)CC1 [CBK262660]	78.6%
CC(=O)NC(N(C)S(=O)(=O)c1ccc(C)cc1)C(Cl)(Cl)Cl (stereo not shown) [CBK262662]	93.8%
CC12CN3CC(C)(CN(C1)C3c1cc(Br)ccc1O)C2O (stereo not shown) [CBK262664]	112%
CC12CN3CC(C)(CN(C1)C3c1ccc([N+](=O)[O-])cc1)C2 (stereo not shown) [CBK262665]	95.2%
CC(=O)Nc1ccc(-c2nc3c4ccccc4c4ccc(I)cc4c3[nH]2)cc1 [CBK262667]	100%
NNC(=O)c1cc(O)n[nH]1 [CBK262669]	106%
O=C(Nc1cccc(Br)c1)C1CN(S(=O)(=O)c2ccccc2)CCN1S(=O)(=O)c1ccccc1 (stereo not shown) [CBK262671]	79.7%
O=C(Nc1ccc(I)cc1)c1ccc(CN2CCc3ccccc3C2)cc1 [CBK262672]	101%
COc1ccccc1NC(=O)C1CN(S(=O)(=O)c2ccccc2)CCN1S(=O)(=O)c1ccccc1 (stereo not shown) [CBK262673]	93.5%
COc1cc(/C=C2\SC(=N)NC2=O)ccc1OCC(=O)O [CBK262675]	88.4%
COc1ccc(C2=NN(c3ccccc3)C(c3ccc(OC)c(OC)c3C(=O)O)C2)cc1 (stereo not shown) [CBK262679]	89.3%
O=C(O)CN(c1cccc([N+](=O)[O-])c1)S(=O)(=O)c1ccccc1 [CBK262684]	85.6%
O=C(C1CN(S(=O)(=O)c2ccccc2)CCN1S(=O)(=O)c1ccccc1)N1CCCCC1 (stereo not shown) [CBK262686]	86.4%
O=C1C(=CNCc2ccco2)C(=O)c2ccccc21 [CBK262688]	115%
Cc1cc2c([nH]c3ccccc32)c(C)n1 [CBK262689]	104%
Cc1ccc(NC(=O)C2CN(S(=O)(=O)c3ccccc3)CCN2S(=O)(=O)c2ccccc2)c(C)c1 (stereo not shown) [CBK262693]	83.8%
N#CC(C(N)=O)C(c1ccc(Br)cc1)c1c(-c2ccccc2)nn(-c2nc(-c3ccccc3)cs2)c1O (stereo not shown) [CBK262697]	107%
COc1ccc(C(C)=O)cc1Cc1c(O)nc(SC)nc1O [CBK262699]	93.9%
CC(C)Oc1ccccc1-c1nnc(SCC(=O)O)[nH]1 [CBK262702]	81.7%
Cc1ccc(N(CC(=O)Nc2cccc3ccccc23)S(=O)(=O)c2ccc(F)cc2)cc1 [CBK262707]	94.7%
COc1ccc(/C=N/NC(=O)c2ccc(CN3CCOCC3)cc2)cc1[N+](=O)[O-] [CBK262708]	93%

SMILES	viability at 28.5 h, 10 µM
CC(=O)c1c(C)nn2c3ccccc3n(CCN3CCOCC3)c12 [CBK262709C]	115%
COc1ccc(/C=C2\S/C(=N\Cc3ccccc3)N(Cc3ccccc3)C2=O)cc1C(=O)O [CBK262715]	104%
O=[N+]([O-])c1ccc2c(c1)C=C1CCCCC1(NCc1ccccc1)O2 (stereo not shown) [CBK262716]	98.8%
COc1ccc(CCN2C(=O)c3ccccc3C2(O)c2ncc[nH]2)cc1OC (stereo not shown) [CBK262717]	103%
COc1ccccc1NC(=O)CN(c1ccc(C)cc1)S(=O)(=O)c1ccc(F)cc1 [CBK262718]	91.2%
Cc1[nH]nc(Nc2ccc(C(=O)O)cc2)c1[N+](=O)[O-] [CBK262726]	80%
CN1CCC(=NNC(=O)CN(c2cccc([N+](=O)[O-])c2)S(=O)(=O)c2ccccc2)CC1 [CBK262727]	90.3%
CN1CCC(=NNC(=O)c2ccc(CN(c3ccccc3)S(C)(=O)=O)cc2)CC1 [CBK262728]	97.8%
COc1ccc(N(CC(=O)O)S(=O)(=O)c2ccccc2[N+](=O)[O-])c(OC)c1 [CBK262729]	92.6%
O=C(CN1CCOCC1)N/N=C/c1cc2ccccc2nc1Cl [CBK262732]	101%
COc1cc(Br)c(/C=C(/C#N)C(=O)Nc2ccc(O)cc2)cc1OC [CBK262733]	79.9%
CCc1ccc2[nH]c3nc(NN)nnc3c2c1 [CBK262734]	65.1%
CCn1cc(C(=O)NN)c(=O)c2cc(F)c(NN)cc21 [CBK262735]	79.1%
Cc1ccc(S(=O)(=O)N2/C(=C\COc3ccc(Cl)cc3Cl)C(N3CCOCC3)c3ccccc32)cc1 (stereo not shown) [CBK262740]	87.6%
CCCOc1ccc(CCNc2ncnc(N)n2)cc1 [CBK262744]	90.1%
CS(=O)(=O)N(Cc1ccccc1)c1ccc(C(=O)Nc2ccccc2Cl)cc1 [CBK262745]	86.9%
Cc1[nH]nc(Nc2ccc(I)cc2)c1[N+](=O)[O-] [CBK262748]	86.2%
CN1CCC(=NNC(=O)c2ccc(CN3CCOCC3)cc2)CC1 [CBK262749]	86.6%
CC(C)c1cccc(C(C)C)c1OCCNCCO [CBK262750]	89.3%
COc1ccc(/C=C(/C#N)C(=O)Nc2cccc(C)c2C)cc1C(=O)O [CBK262751]	87.4%
C/C(=N\NC(=O)c1ccc(CN2CCOCC2)cc1)c1ccc2c(c1)OCCO2 [CBK262755]	92%
NCCNc1ccc([N+](=O)[O-])c(NCc2ccccc2)c1 [CBK262757C]	83.7%
COc1cccc(/C=N/NC(=O)CSc2nnc(C)n2-c2ccccc2)c1O [CBK262758]	80.7%
O=C(N/N=C\c1ccc(OCc2ccccc2)cc1)C1COc2cc3ccccc3cc2O1 (stereo not shown) [CBK262764]	95.6%
CN(C)c1ccc(NC(=O)CC2Nc3ccccc3NC2=O)cc1 (stereo not shown) [CBK262765]	87.1%
O=C(O)c1ccccc1-c1ccccc1C(=O)Nc1cccc(-c2nc3ccccc3o2)c1 [CBK262767]	103%
Cc1nnc(SCC(=O)N/N=C/c2cc([N+](=O)[O-])ccc2O)n1-c1ccccc1 [CBK262768]	89.5%

SMILES	viability at 28.5 h, 10 µM
O=C(O)CCCCCN1C(=O)/C(=C/c2ccc(O)c(O)c2)SC1=S [CBK262771]	91%
O=c1oc(-c2cccc(F)c2)nc2cc(Cc3ccc4c(=O)oc(-c5cccc(F)c5)nc4c3)ccc12 [CBK262775]	121%
O=C(NCC1CCCO1)c1ccc2c(c1)C(=O)N(c1ccccc1-c1ccccc1)C2=O (stereo not shown) [CBK262777]	86%
COc1ccc(/C=C2\S/C(=N/N=C/c3ccc(OC)cc3)N(c3ccc(O)cc3)C2=O)cc1 [CBK262780]	87.7%
CCCc1[nH]n(-c2ccc([N+](=O)[O-])cc2)c(=O)c1/C=N/N1CCN(C)CC1 [CBK262781]	92.8%
Cc1ccc(N2C(=O)c3ccc(S(=O)(=O)c4cccc(C(=O)O)c4)cc3C2=O)c(C)c1 [CBK262783]	86.2%
O=C(O)CCN1C(=O)/C(=C/c2ccc(C(=O)O)cc2)SC1=S [CBK262785]	93.2%
O=C(CSc1nnc(-c2ccncc2)n1-c1ccccc1)N/N=C/c1ccccc1O [CBK262788]	85%
COc1ccc(/C=N/NC(=O)Cc2cccn2C)cc1[N+](=O)[O-] [CBK262789]	99.1%
CC(=O)Nc1ccc(/C=N/NC(=O)c2nnn(-c3nonc3N)c2-c2ccccc2)cc1 [CBK262790]	94.9%
O=C(CSc1nnc(-c2ccccc2)n1-c1ccccc1)N/N=C/c1coc2ccccc2c1=O [CBK262791]	97.6%
Cc1ccc(C(=O)Nc2cccc(-c3nc4ncccc4o3)c2C)cc1[N+](=O)[O-] [CBK262793]	94.3%
O=c1[nH]nc(SCCOc2c(Cl)c(Cl)c(Cl)c(Cl)c2Cl)c(=O)[nH]1 [CBK262794]	91%
Cc1ccc(C(=O)O)cc1NC(=O)c1cccc(C(=O)Nc2cc(C(=O)O)ccc2C)c1 [CBK262797]	97.5%
O=C(N/N=C/c1c[nH]c2ccc(Br)cc12)c1ccncc1 [CBK262798]	116%
O=C1/C(=C/c2ccccc2)S/C(=N/N=C/c2ccccc2)N1c1ccc(O)cc1 [CBK262803]	89.6%
COc1ccc(/C(C)=N/NC(=N)SC2CC(=O)N(c3ccc(C(=O)O)cc3)C2=O)cc1F (stereo not shown) [CBK262805]	107%
CC(=O)ON=C1c2cc(S(=O)(=O)N(C)C)ccc2-c2ccc(S(=O)(=O)N(C)C)cc21 [CBK262807]	87.1%
Cc1cc(O)cc(O)c1/C=N\NC(=O)C1COc2cc3ccccc3cc2O1 (stereo not shown) [CBK262809]	80.4%
O=S(=O)(NCC(c1ccccc1)N1CCNCC1)c1ccccc1 (stereo not shown) [CBK262813]	105%
O=C(N/N=C/c1ccc(Cl)cc1Cl)c1nc(-c2ccccc2)cc(-c2ccccc2)n1 [CBK262814]	90.1%
Nc1nonc1-n1nnc(C(=O)N/N=C/c2nc3ccccc3[nH]2)c1-c1ccccc1 [CBK262815]	93.8%
O=C(CSc1nnc(-c2ccncc2)n1-c1ccccc1)N/N=C/c1c[nH]c2ccc(Br)cc12 [CBK262816]	91.5%
O=[N+]([O-])c1ccc(OC(CNS(=O)(=O)c2ccc(Cl)cc2)c2ccccc2)cc1 (stereo not shown) [CBK262817]	93%
CCOc1ccc(C(=O)Nc2ccc(-c3nc4cc(C)c(C)cc4o3)cc2)cc1[N+](=O)[O-] [CBK262818]	94.2%
NC(=O)c1c(NC(=O)COc2ccccc2[N+](=O)[O-])sc2c1CCC2 [CBK262819]	105%

Same assay, conditions: human, hela cells, % viability, bulk resorufin, single well

SMILES	viability at 28.5 h, 10 µM
O=C(NNc1c(Cl)cccc1Cl)C(O)(c1ccccc1)c1ccccc1 [CBK262739]	101%
O=[N+]([O-])c1ccc(OC/C=C2\Oc3ccc([N+](=O)[O-])cc3C2N2CCOCC2)cc1 (stereo not shown) [CBK262743]	91.8%
